Consider 13 compounds from US11524938B2, “Aromatic sulfonamide derivatives” (Bayer Pharma Aktiengesellschaft, priority 2016, dated 2022).

This experiment concerns the target T1, human P2X4 (Homo sapiens, UniProt Q99571).
T1 sequence (Q99571 1-388): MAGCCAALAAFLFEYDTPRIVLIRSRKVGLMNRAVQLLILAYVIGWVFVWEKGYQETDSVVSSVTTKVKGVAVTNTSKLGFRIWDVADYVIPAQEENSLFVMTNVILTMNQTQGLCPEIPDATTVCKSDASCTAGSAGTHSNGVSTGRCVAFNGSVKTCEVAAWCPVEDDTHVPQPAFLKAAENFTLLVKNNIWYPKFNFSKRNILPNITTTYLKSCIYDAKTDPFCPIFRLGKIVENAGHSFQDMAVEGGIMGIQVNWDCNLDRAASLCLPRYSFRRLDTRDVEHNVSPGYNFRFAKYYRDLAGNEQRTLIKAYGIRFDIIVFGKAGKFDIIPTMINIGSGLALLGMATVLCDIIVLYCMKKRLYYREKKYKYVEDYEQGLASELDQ
The experiment is described as follows: Human P2X4 HEK Cell FLIPR Assay. Type of experiment: cell-based. To be noted: agonist Bz-ATP at EC80; for Emax: HEK293, HEK293 cells, percentage of maximal inhibition, read-out: Human P2X4 HEK Cells (FLIPR Assay) avg Efficacy [%]; for IC50: HEK293 cells, individual values listed where some fall outside detection range. How it is done:
HEK293 cells stably expressing human P2X4 were plated in poly-D-lysine-coated 384-well plates at a seeding density of 30000 cells/well and incubated overnight. P2X4 function was assessed by measuring intracellular calcium changes using the calcium-chelating dye Fluo8-AM (Molecular Devices) on a fluorescent imaging plate reader (FLEX/FLIPR station; Molecular Devices). On the day of the assay, the medium was removed and the cells were incubated for 30 min at 37° C. and 5% CO2 in 30 μL of dye buffer (Hank's balanced salt solution, 10 mM HEPES, 1.8 mM CaCl2, 1 mM MgCl2, 2 mM probenecid, 5 mM D-glucose monohydrate, 5 μM Fluo8-AM, pH=7.4). Compounds diluted in probenecid buffer (Hank's balanced salt solution, 10 mM HEPES, 1.8 mM CaCl2, 1 mM MgCl2, 2 mM probenecid, 5 mM D-glucose monohydrate, pH=7.4) were added in a volume of 10 μL and allowed to incubate for 30 min at room temperature. The final assay DMSO concentration was 0.5%. The agonist, Bz-ATP (Tocris), was added in a volume of 10 μL at a concentration representing the EC80 value. The EC80 value of Bz-ATP was determined each assay day prior to compound profiling. The fluorescence was measured for an interval of 120 sec at 2 sec intervals. The excitation and emission wavelengths used to monitor fluorescence were 470-495 nm and 515-575 nm, respectively. The data was analyzed based on the increase in peak relative fluorescence units (RFU) compared to the basal fluorescence and the data was normalized to the agonist control. The compounds were tested in triplicates per plate and mean values were plotted in Excel XLFit to determine IC50 values, percentage of maximal inhibition and the Hill coefficients.

The structures appear in SMILES notation.

One may read the IC50 as the midpoint of a concentration-inhibition curve. Read a low IC50 as greater potency in that assay. Take `CC(C)(C)c1ncn(-c2ccc(NC(=O)Cc3ccccc3Cl)cc2S(N)(=O)=O)n1` [Example 23, N-[4-(3-tert-Butyl-1H-1,2,4-triazol-1-yl)-3-sulfamoylphenyl]-2-(2-chlorophenyl)-acetamide]: the Emax came to 89% and the IC50 is 1.18 µM.

As to `NS(=O)(=O)c1cc(NC(=O)Cc2ccccc2Cl)ccc1-n1cc(Cl)cn1` [Example 25, 2-(2-Chlorophenyl)-N-[4-(4-chloro-1H-pyrazol-1-yl)-3-sulfamoylphenyl]acetamide], the Emax stood at 93%.

For `CC(C)Oc1cnn(-c2ccc(NC(=O)Cc3ccccc3Cl)cc2S(N)(=O)=O)c1` [Example 27, 2-(2-Chlorophenyl)-N-[4-(4-isopropoxy-1H-pyrazol-1-yl)-3-sulfamoylphenyl]-acetamide], the Emax came to 74% and the IC50 came to 0.07 µM.

Take `CC(C)Cc1ncn(-c2ccc(NC(=O)Cc3ccccc3Cl)cc2S(N)(=O)=O)n1` [Example 29, 2-(2-Chlorophenyl)-N-[4-(3-isobutyl-1H-1,2,4-triazol-1-yl)-3-sulfamoylphenyl]-acetamide]: the Emax stood at 75% and the IC50 came to 0.113 µM.

In the case of `CSc1cnn(-c2ccc(NC(=O)Cc3ccccc3Cl)cc2S(N)(=O)=O)c1` [Example 30, 2-(2-Chlorophenyl)-N-{4-[4-(methylsulfanyl)-1H-pyrazol-1-yl]-3-sulfamoylphenyl}-acetamide], the Emax is 87% and the IC50 was determined as 0.222 µM.

Turning to `COc1cnn(-c2ccc(NC(=O)Cc3ccccc3Cl)cc2S(N)(=O)=O)c1` [Example 31, 2-(2-Chlorophenyl)-N-[4-(4-methoxy-1H-pyrazol-1-yl)-3-sulfamoylphenyl]acetamide], the Emax came out at 81% and the IC50 came out at 0.112 µM.

`NS(=O)(=O)c1cc(NC(=O)Cc2ccccc2Cl)ccc1-n1cnc2ccccc21` [Example 32, N-[4-(1H-Benzimidazol-1-yl)-3-sulfamoylphenyl]-2-(2-chlorophenyl)acetamide]: the Emax was determined as 93% and the IC50 stood at 0.139 µM.

Regarding `NS(=O)(=O)c1cc(NC(=O)Cc2ccccc2Cl)ccc1-n1cnc(Cl)c1` [Example 33, N-[4-(4-Chloro-1H-imidazol-1-yl)-3-sulfamoylphenyl]-2-(2-chlorophenyl)acetamide], the Emax came out at 79% and the IC50 worked out at 0.031 µM.

As to `CN(C)c1ncn(-c2ccc(NC(=O)Cc3ccccc3Cl)cc2S(N)(=O)=O)n1` [Example 34, 2-(2-Chlorophenyl)-N-{4-[3-(dimethylamino)-1H-1,2,4-triazol-1-yl]-3-sulfamoyl-phenyl}acetamide], the Emax came to 79% and the IC50 came to 0.448 µM.

Take `CCc1ncn(-c2ccc(NC(=O)Cc3ccccc3Cl)cc2S(N)(=O)=O)n1` [Example 35, 2-(2-Chlorophenyl)-N-[4-(3-ethyl-1H-1,2,4-triazol-1-yl)-3-sulfamoylphenyl]acetamide]: the Emax is 90% and the IC50 came to 0.224 µM.

As for `NS(=O)(=O)c1cc(NC(=O)Cc2ccccc2Cl)ccc1-n1cnc(C2CC2)n1` [Example 36, (2-Chlorophenyl)-N-[4-(3-cyclopropyl-1H-1,2,4-triazol-1-yl)-3-sulfamoylphenyl]-acetamide], the Emax was determined as 81% and the IC50 amounted to 0.667 µM.

Regarding `NS(=O)(=O)c1cc(NC(=O)Cc2ccccc2Cl)ccc1-n1ncnc1C1CC1` [Example 37, 2-(2-Chlorophenyl)-N-[4-(5-cyclopropyl-1H-1,2,4-triazol-1-yl)-3-sulfamoyl-phenyl]acetamide], the Emax was found to be 81% and the IC50 came out at 0.848 µM.

Turning to `COCc1ncn(-c2ccc(NC(=O)Cc3ccccc3Cl)cc2S(N)(=O)=O)n1` [Example 38, 2-(2-Chlorophenyl)-N-{4-[3-(methoxymethyl)-1H-1,2,4-triazol-1-yl]-3-sulfamoyl-phenyl}acetamide], the Emax was 87% and the IC50 is 0.329 µM.
